{
  "source": "patent US20180105561A1",
  "about": "“ANALOGS OF SODIUM CHANNEL PEPTIDE TOXIN” (priority 2010, published 2018)",
  "key": {"[1]": {"molecular_target": "human Nav1.7 (Homo sapiens, UniProt Q15858)", "sequence (Q15858 other isoform, or with tags, fused parts or gaps)": "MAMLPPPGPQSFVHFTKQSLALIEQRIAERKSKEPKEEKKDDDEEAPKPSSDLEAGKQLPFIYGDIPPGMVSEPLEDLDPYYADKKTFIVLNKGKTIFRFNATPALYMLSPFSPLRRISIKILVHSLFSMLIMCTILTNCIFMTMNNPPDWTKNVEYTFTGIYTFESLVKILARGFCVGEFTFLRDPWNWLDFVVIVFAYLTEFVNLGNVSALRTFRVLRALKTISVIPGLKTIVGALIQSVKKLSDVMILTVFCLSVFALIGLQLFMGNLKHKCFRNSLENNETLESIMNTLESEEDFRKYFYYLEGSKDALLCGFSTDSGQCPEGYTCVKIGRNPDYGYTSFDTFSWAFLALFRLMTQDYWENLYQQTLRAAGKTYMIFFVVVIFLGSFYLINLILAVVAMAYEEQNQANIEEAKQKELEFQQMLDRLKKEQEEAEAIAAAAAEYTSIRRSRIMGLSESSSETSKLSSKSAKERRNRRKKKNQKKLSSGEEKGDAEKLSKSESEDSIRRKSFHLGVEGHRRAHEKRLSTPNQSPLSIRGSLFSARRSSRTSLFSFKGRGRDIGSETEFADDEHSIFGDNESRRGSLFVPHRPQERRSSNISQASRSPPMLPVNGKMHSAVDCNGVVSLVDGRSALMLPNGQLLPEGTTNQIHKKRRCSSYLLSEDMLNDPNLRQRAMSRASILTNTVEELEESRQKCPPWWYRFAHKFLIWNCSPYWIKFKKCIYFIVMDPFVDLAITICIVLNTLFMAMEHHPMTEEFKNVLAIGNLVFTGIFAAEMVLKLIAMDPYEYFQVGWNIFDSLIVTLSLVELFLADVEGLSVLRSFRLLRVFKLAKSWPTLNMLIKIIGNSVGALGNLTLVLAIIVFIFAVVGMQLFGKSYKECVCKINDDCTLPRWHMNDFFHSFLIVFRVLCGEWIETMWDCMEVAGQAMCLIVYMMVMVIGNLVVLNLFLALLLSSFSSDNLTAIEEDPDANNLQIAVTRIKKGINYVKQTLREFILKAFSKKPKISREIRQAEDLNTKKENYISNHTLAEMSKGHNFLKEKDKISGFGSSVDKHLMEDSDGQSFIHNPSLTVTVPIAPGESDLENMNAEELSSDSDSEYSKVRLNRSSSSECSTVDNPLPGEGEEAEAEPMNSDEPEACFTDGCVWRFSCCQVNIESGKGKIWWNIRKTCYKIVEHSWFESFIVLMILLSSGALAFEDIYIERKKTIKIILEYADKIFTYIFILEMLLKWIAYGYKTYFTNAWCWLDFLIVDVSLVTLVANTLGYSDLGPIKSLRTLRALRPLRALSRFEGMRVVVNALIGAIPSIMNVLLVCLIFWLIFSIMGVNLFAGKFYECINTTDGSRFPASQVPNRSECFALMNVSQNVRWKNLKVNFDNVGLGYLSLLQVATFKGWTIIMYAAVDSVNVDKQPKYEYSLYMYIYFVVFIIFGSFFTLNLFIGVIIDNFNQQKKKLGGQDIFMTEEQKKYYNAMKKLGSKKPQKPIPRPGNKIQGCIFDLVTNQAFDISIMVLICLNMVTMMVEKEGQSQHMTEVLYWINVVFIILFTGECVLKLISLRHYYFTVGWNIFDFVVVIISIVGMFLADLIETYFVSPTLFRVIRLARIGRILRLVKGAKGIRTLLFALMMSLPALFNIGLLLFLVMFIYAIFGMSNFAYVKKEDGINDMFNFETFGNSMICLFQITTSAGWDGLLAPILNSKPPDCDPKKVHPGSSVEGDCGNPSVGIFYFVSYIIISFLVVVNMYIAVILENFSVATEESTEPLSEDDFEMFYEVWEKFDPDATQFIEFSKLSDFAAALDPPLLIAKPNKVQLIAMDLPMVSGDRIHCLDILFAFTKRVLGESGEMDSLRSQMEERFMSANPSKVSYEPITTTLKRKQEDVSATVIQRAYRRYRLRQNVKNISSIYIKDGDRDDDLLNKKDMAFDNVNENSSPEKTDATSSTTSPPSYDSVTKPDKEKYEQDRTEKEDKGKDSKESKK", "format": "cell-based", "settings": "Table 3, natural toxins"}, "[2]": {"test_system": "Nav1.2 (rBIIa)", "assay": "Sodium channel-blocking assay, Nav1.2 counter-screen", "format": "cell-based, rat", "settings": "Table 3, natural toxins"}},
  "note": "Where a SMILES comes first, the peptide text is derived from it. Bridges are numbered along the chain shown (N, C = ends).",
  "data": [
    {"compound": "CC[C@H](C)[C@H](NC(=O)[C@H](CCCCN)NC(=O)[C@H](CCCCN)NC(=O)[C@H](CCCCN)NC(=O)[C@@H]1CSSC[C@@H]2NC(=O)[C@H](CCCCN)NC(=O)[C@H](CCCNC(=N)N)NC(=O)[C@H](CCC(=O)O)NC(=O)[C@H](CCC(=O)O)NC(=O)[C@H](CC(=O)O)NC(=O)[C@@H]3CSSC[C@H](NC(=O)[C@H](C(C)C)NC(=O)[C@H](CC(C)C)NC(=O)CNC(=O)[C@H](CCC(=O)O)NC(=O)[C@H](CSSC[C@H](NC(=O)[C@@H](N)Cc4ccc(O)cc4)C(=O)N[C@@H](CCC(N)=O)C(=O)N[C@@H](CCCCN)C(=O)N[C@@H](Cc4c[nH]c5ccccc45)C(=O)N[C@@H](CCSC)C(=O)N[C@@H](Cc4c[nH]c5ccccc45)C(=O)N[C@@H]([C@@H](C)O)C(=O)N3)NC2=O)C(=O)N[C@@H](CCCNC(=N)N)C(=O)N[C@@H](CC(C)C)C(=O)N[C@@H](Cc2c[nH]c3ccccc23)C(=O)N1)C(=O)N[C@@H](CCC(=O)O)C(=O)N[C@@H](Cc1c[nH]c2ccccc12)C(=O)O", "note": "[GsAF II] (H-YCQKWMWTCDEERKCCEGLVCRLWCKKKIEW-OH; disulfide 2-16, 9-21, 15-25)", "values": [
      {"measurement": "IC50", "setting": "[1]", "result": "70 ± 10", "unit": "nM"},
      {"measurement": "IC50", "setting": "[2]", "result": "410 ± 20", "unit": "nM"}
    ]}
  ]
}
